Experimental data as given in patent publication US7579335B2, “Androstane 17α-carbonate derivatives for use in the treatment of allergic and inflammatory conditions” (Glaxo Group Limited, priority 2005, dated 2009).

Legend:
[1] = target: T1, glucocorticoid receptor (Homo sapiens, UniProt P04150); assay: Assay for transactivation activity of the glucocorticoid agonists (MMTV-LTR renilla luciferase reporter); assay type: cell-based; conditions: A549, A549 cells, 6 hour at 37° C., read-out: maximal response relative to Dexamethasone (100%), transactivation
T1 sequence (P04150 1-777): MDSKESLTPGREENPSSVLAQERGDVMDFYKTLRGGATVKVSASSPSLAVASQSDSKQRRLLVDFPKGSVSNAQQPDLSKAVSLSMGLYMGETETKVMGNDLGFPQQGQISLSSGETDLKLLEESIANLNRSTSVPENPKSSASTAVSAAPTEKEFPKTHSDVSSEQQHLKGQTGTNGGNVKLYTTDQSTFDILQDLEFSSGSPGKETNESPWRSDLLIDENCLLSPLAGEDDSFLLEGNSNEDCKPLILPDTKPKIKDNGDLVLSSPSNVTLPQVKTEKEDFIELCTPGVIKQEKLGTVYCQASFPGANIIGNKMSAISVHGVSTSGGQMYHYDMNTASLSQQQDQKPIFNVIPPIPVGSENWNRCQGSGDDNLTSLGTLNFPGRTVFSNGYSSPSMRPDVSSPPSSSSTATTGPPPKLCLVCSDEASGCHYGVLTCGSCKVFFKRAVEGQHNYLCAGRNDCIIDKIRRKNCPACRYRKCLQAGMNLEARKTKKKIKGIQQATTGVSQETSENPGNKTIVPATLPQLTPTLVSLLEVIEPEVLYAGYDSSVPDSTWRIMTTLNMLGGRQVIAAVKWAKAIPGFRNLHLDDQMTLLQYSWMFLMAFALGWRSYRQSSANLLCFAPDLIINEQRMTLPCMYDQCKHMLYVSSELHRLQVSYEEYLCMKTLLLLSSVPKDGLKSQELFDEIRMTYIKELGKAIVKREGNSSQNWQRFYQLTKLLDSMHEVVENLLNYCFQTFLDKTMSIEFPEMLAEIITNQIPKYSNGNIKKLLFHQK
Method: Assay for Transactivation Activity of the Glucocorticoid Agonists
The functional assay based on that described by R. J. H. Austin et al., Eur Resp J. (2002), 20, 1386-1392 measures the ability of compounds to directly transactivate gene expression. A549 cells stably transfected with a reporter gene containing the glucocorticoid responsive region of the mouse mammary tumour virus long terminal repeat (MMTV-LTR) coupled to renilla luciferase were treated with test compounds at appropriate doses for 6 hour at 37° C. The amount of luciferase activity present within the cells is then determined by measuring the light emitted following incubation with a suitable substrate. Dose response curves were constructed from which EC50 values were estimated and from which maximal responses are calculated relative to Dexamethasone (100%).

[2] = target: T1, glucocorticoid receptor; assay: Assay for transrepression activity of the glucocorticoid agonists (NF-κB/ELAM-sPAP reporter, TNF stimulated); assay type: cell-based; conditions: A549 cells, NF-κB responsive ELAM promoter-sPAP reporter; compound 1 hour, then TNF 10 ng/ml for 16 hours; read-out: pEC50 transrepression (converted)
Method: Assay for Transrepression Activity of the Glucocorticoid Agonists
The functional assay based on that described by K. P. Ray et al., Biochem J. (1997), 328, 707-715 provides a measure of transrepressive activity of a glucocorticoid agonist. A549 cells stably transfected with a reporter gene containing the NF-κB responsive elements from the ELAM gene promoter coupled to sPAP (secreted alkaline phosphatase) are treated with test compounds at appropriate doses for 1 hour at 37° C. The cells are then stimulated with tumour necrosis factor (TNF, 10 ng/ml) for 16 hours, at which time the amount of alkaline phosphatase produced is measured by a standard colourimetric assay. Dose response curves were constructed from which EC50 values were estimated.

EC50 [2] [nM]	SMILES	Emax [1] [%]
–	CC1CC2C3CC(F)C4=CC(=O)C=CC4(C)C3(F)C(O)CC2(C)C1(OC(=O)OC1CC2CCC1(C)C2(C)C)C(=O)OCC#N (stereo not drawn) [Example 22, Cyanomethyl (6α,11β,16α,17α)-6,9-difluoro-11-hydroxy-16-methyl-3-oxo-17-[({[(1RS,2RS,4RS)-1,7,7-trimethylbicyclo[2.2.1]hept-2-yl]oxy}carbonyl)oxy]androsta-1,4-diene-17-carboxylate]	< 40
< 0.1	CCC(C)(C)OC(=O)O[C@]1(C(=O)OCC#N)[C@H](C)C[C@H]2[C@@H]3C[C@H](F)C4=CC(=O)C=C[C@]4(C)[C@@]3(F)[C@@H](O)C[C@@]21C [Example 2, Cyanomethyl (6α,11β,16α,17α)-17-({[(1,1-dimethylpropyl)oxy]carbonyl}oxy)-6,9-difluoro-11-hydroxy-16-methyl-3-oxoandrosta-1,4-diene-17-carboxylate]	–
< 0.316	C[C@@H]1C[C@H]2[C@@H]3C[C@H](F)C4=CC(=O)C=C[C@]4(C)[C@@]3(F)[C@@H](O)C[C@]2(C)[C@@]1(OC(=O)OCC(C)(C)C)C(=O)OCC#N [Example 6, Cyanomethyl (6α,11β,16α,17α)-17-({[(2,2-dimethylpropyl)oxy]carbonyl}oxy)-6,9-difluoro-11-hydroxy-16-methyl-3-oxoandrosta-1,4-diene-17-carboxylate]	–
< 0.316	CCC(CC)OC(=O)O[C@]1(C(=O)OCC#N)[C@H](C)C[C@H]2[C@@H]3C[C@H](F)C4=CC(=O)C=C[C@]4(C)[C@@]3(F)[C@@H](O)C[C@@]21C [Example 3, Cyanomethyl (6α,11β,16α,17α)-17-({[(1-ethylpropyl)oxy]carbonyl}oxy)-6,9-difluoro-11-hydroxy-16-methyl-3-oxoandrosta-1,4-diene-17-carboxylate]	–
–	CC[C@H]1CC[C@@H](OC(=O)O[C@]2(C(=O)OCC#N)[C@H](C)C[C@H]3[C@@H]4C[C@H](F)C5=CC(=O)C=C[C@]5(C)[C@@]4(F)[C@@H](O)C[C@@]32C)CC1 (relative stereo) [Example 20, Cyanomethyl (6α,11β,16α,17α)-17-({[(cis-4-ethylcyclohexyl)oxy]carbonyl}oxy)-6,9-difluoro-11-hydroxy-16-methyl-3-oxoandrosta-1,4-diene-17-carboxylate]	< 40
–	CCCC(CCC)OC(=O)O[C@]1(C(=O)OCC#N)[C@H](C)C[C@H]2[C@@H]3C[C@H](F)C4=CC(=O)C=C[C@]4(C)[C@@]3(F)[C@@H](O)C[C@@]21C [Example 21, Cyanomethyl (6α,11β16α,17α)-6,9-difluoro-11-hydroxy-16-methyl-3-oxo-17-({[(1-propylbutyl)oxy]carbonyl}oxy)androsta-1,4-diene-17-carboxylate]	< 40
< 0.1	C[C@@H]1C[C@H]2[C@@H]3C[C@H](F)C4=CC(=O)C=C[C@]4(C)[C@@]3(F)[C@@H](O)C[C@]2(C)[C@@]1(OC(=O)OC(C)(C)C)C(=O)OCC#N [Example 1, Cyanomethyl (6α,11β,16α,17α)-17-({[(1,1-dimethylethyl)oxy]carbonyl}oxy)-6,9-difluoro-11-hydroxy-16-methyl-3-oxoandrosta-1,4-diene-17-carboxylate]	–
< 0.316	CC(C)C1CCC(OC(=O)O[C@]2(C(=O)OCC#N)[C@H](C)C[C@H]3[C@@H]4C[C@H](F)C5=CC(=O)C=C[C@]5(C)[C@@]4(F)[C@@H](O)C[C@@]32C)CC1 (single isomer, unassigned) [Example 11B, Cyanomethyl (6α,11β,16α,17α)-6,9-difluoro-11-hydroxy-16-methyl-17-[({[4-(1-methylethyl)cyclohexyl]oxy}carbonyl)oxy]-3-oxoandrosta-1,4-diene-17-carboxylate]	–
< 0.316	CC(C)C(OC(=O)O[C@]1(C(=O)OCC#N)[C@H](C)C[C@H]2[C@@H]3C[C@H](F)C4=CC(=O)C=C[C@]4(C)[C@@]3(F)[C@@H](O)C[C@@]21C)C(C)C [Example 4, Cyanomethyl (6α,11β,16α,17α)-6,9-difluoro-11-hydroxy-16-methyl-17-[({[2-methyl-1-(1-methylethyl)propyl]oxy}carbonyl)oxy]-3-oxoandrosta-1,4-diene-17-carboxylate]	–
–	CC(OC(=O)O[C@]1(C(=O)OCC#N)[C@H](C)C[C@H]2[C@@H]3C[C@H](F)C4=CC(=O)C=C[C@]4(C)[C@@]3(F)[C@@H](O)C[C@@]21C)C(C)(C)C (stereo partly drawn) [Example 23, Cyanomethyl (6α,11β,16α,17α)-6,9-difluoro-11-hydroxy-16-methyl-3-oxo-17-({[(1,2,2-trimethylpropyl)oxy]carbonyl}oxy)androsta-1,4-diene-17-carboxylate]	< 40
–	CCCC(OC(=O)O[C@]1(C(=O)OCC#N)[C@H](C)C[C@H]2[C@@H]3C[C@H](F)C4=CC(=O)C=C[C@]4(C)[C@@]3(F)[C@@H](O)C[C@@]21C)C(C)C (stereo partly drawn) [Example 24, Cyanomethyl (6α,11β,16α,17α)-6,9-difluoro-11-hydroxy-16-methyl-17-[({[1-(1-methylethyl)butyl]oxy}carbonyl)oxy]-3-oxoandrosta-1,4-diene-17-carboxylate]	< 40
–	CC[C@H]1CC[C@H](OC(=O)O[C@]2(C(=O)OCC#N)[C@H](C)C[C@H]3[C@@H]4C[C@H](F)C5=CC(=O)C=C[C@]5(C)[C@@]4(F)[C@@H](O)C[C@@]32C)CC1 (relative stereo) [Example 19, Cyanomethyl (6α,11β,16α,17α)-17-({[(trans-4-ethylcyclohexyl)oxy]carbonyl}oxy)-6,9-difluoro-11-hydroxy-16-methyl-3-oxoandrosta-1,4-diene-17-carboxylate]	< 40

SMILES	EC50 [2] [nM]	Emax [1] [%]
CC(C)C(C)OC(=O)O[C@]1(C(=O)OCC#N)[C@H](C)C[C@H]2[C@@H]3C[C@H](F)C4=CC(=O)C=C[C@]4(C)[C@@]3(F)[C@@H](O)C[C@@]21C (stereo partly drawn) [Example 8, Cyanomethyl (6α,11β,16α,17α)-17-({[(1,2-dimethylpropyl)oxy]carbonyl}oxy)-6,9-difluoro-11-hydroxy-16-methyl-3-oxoandrosta-1,4-diene-17-carboxylate]	< 0.316	< 40
C[C@@H]1C[C@H]2[C@@H]3C[C@H](F)C4=CC(=O)C=C[C@]4(C)[C@@]3(F)[C@@H](O)C[C@]2(C)[C@@]1(OC(=O)OC1CCCC1)C(=O)OCC#N [Example 9, Cyanomethyl (6α,11β,16α,17α)-17-{[(cyclopentyloxy)carbonyl]oxy}-6,9-difluoro-11-hydroxy-16-methyl-3-oxoandrosta-1,4-diene-17-carboxylate]	< 0.316	< 40
CCC(OC(=O)O[C@]1(C(=O)OCC#N)[C@H](C)C[C@H]2[C@@H]3C[C@H](F)C4=CC(=O)C=C[C@]4(C)[C@@]3(F)[C@@H](O)C[C@@]21C)C(C)C (stereo partly drawn) [Example 7, Cyanomethyl (6α,11β,16α,17α)-17-({[(1-ethyl-2-methylpropyl)oxy]carbonyl}oxy)-6,9-difluoro-11-hydroxy-16-methyl-3-oxoandrosta-1,4-diene-17-carboxylate]	< 0.316	< 40
CCC(CC)COC(=O)O[C@]1(C(=O)OCC#N)[C@H](C)C[C@H]2[C@@H]3C[C@H](F)C4=CC(=O)C=C[C@]4(C)[C@@]3(F)[C@@H](O)C[C@@]21C [Example 5, Cyanomethyl (6α,11β,16α,17α)-17-({[(2-ethylbutyl)oxy]carbonyl}oxy)-6,9-difluoro-11-hydroxy-16-methyl-3-oxoandrosta-1,4-diene-17-carboxylate]	< 0.316	< 40
